Source: patent publication US20260306640A1, “TECHNOLOGIES TARGETING CELL STATES” (Auron Therapeutics, Inc., priority 2023, published 2026)

Key:
KAT2A = KAT2A (Homo sapiens, UniProt Q92830); assay: KAT2A degradation, Western Blot (Jess), NCI-H1048 cells; type: cell-based; parameters: degrader, Western blot (Jess); conditions: NCI-H1048 cells, KAT2A, 24 h, Western Blot, vs DMSO; read-out: KAT2A NCI-H1048 DC50
Outline: (§1)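 DC50 came from protein loss relative to DMSO, measured by Jess capillary immunoblot of RIPA lysates with chemiluminescence read-out. Before lysis, NCI-H1048 cells in 5% FBS HITES medium were exposed to compound for 24 h at 37° C.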

KAT2B = KAT2B (Homo sapiens, UniProt Q92831); assay: KAT2B degradation, Western Blot (Jess), NCI-H1048 cells; type: cell-based; parameters: degrader, Western blot (Jess); conditions: NCI-H1048 cells, KAT2B, 24 h, Western Blot, vs DMSO; read-out: KAT2B NCI-H1048 DC50
Chain of KAT2B (Q92831 whole entry): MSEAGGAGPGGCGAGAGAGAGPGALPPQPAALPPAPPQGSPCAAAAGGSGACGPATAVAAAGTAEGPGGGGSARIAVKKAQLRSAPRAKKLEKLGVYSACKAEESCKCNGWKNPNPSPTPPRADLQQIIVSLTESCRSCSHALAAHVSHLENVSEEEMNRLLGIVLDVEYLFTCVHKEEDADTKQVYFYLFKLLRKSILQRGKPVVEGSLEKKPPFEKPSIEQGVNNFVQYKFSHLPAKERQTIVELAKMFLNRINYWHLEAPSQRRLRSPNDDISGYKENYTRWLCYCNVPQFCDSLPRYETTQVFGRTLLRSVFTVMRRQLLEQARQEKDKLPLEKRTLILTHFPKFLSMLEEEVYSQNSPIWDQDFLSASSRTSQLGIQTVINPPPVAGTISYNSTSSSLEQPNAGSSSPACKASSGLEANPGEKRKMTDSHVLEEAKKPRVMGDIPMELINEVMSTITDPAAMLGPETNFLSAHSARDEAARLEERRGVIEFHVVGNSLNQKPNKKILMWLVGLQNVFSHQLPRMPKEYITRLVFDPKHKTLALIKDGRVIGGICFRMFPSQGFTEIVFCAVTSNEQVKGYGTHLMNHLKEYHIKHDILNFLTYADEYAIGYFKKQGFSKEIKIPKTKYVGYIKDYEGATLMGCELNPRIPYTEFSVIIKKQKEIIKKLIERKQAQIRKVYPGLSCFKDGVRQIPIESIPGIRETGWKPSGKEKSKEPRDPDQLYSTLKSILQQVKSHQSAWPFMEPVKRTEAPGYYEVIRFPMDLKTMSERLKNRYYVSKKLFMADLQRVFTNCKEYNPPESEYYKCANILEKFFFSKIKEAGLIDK
Outline: as §1

Chain of KAT2A (Q92830 whole entry): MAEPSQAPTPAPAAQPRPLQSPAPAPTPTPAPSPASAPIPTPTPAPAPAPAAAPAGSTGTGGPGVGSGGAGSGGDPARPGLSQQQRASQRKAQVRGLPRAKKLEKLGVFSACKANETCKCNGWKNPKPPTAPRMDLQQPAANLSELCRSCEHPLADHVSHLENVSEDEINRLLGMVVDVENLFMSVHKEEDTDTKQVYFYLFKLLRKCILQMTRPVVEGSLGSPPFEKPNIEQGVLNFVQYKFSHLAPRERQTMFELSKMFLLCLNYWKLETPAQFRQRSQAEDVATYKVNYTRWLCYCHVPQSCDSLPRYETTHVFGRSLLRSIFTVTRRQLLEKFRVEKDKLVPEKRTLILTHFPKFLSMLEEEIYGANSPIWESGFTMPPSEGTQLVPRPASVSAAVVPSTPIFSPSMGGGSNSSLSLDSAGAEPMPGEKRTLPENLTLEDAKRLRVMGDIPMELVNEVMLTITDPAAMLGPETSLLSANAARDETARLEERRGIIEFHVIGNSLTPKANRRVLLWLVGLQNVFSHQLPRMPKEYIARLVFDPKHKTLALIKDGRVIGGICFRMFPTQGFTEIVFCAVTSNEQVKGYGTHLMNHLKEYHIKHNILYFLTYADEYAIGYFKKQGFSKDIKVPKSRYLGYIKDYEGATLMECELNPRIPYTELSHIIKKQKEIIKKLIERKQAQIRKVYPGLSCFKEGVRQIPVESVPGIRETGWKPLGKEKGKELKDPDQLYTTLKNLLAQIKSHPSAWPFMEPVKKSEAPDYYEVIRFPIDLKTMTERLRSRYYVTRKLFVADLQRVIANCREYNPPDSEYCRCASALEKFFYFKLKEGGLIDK

SMILES | DC50 (KAT2A) | DC50 (KAT2B)
CN1C[C@H](Nc2cnn(C)c(=O)c2Br)C[C@H](c2ccc(C(=O)N3CCC4(CC3)CCN(c3ccc5nnn(C6CCC(=O)NC6=O)c5c3)CC4)cc2)C1 (some centres unmarked) [Compound 212] | 1 to 30 nM | > 30 nM
CN1C[C@H](Nc2cnn(C)c(=O)c2Br)C[C@H](c2ccc(C(=O)N3CC(c4ccc(C5CCC(=O)NC5=O)cc4)C3)cc2)C1 (some centres unmarked) [Compound 189] | 1 to 30 nM | > 30 nM
CN1C[C@H](Nc2cnn(C)c(=O)c2Br)C[C@H](c2ccc(C(=O)N3CCC4(CC3)CCN(c3ccc(C5CCC(=O)NC5=O)cn3)CC4)cc2)C1 (some centres unmarked) [Compound 261] | < 1 nM | < 1 nM
CN1C[C@H](Nc2cnn(C)c(=O)c2Br)C[C@H](c2ccc(C(=O)N3CCC4(CCC(c5ccc(C6CCC(=O)NC6=O)cc5)CC4)CC3)cc2)C1 (some centres unmarked) [Compound 326] | < 1 nM | < 1 nM
CN1C[C@H](Nc2cnn(C)c(=O)c2Cl)C[C@H](c2ccc(C(=O)N3CCC4(CC3)CCN(c3ccc(CN5CCC(=O)NC5=O)cc3)CC4)cc2)C1 [Compound 268] | < 1 nM | > 30 nM
CN1C[C@H](Nc2cnn(C)c(=O)c2Cl)C[C@H](c2ccc(C(=O)N3CCC4(CC3)CCN(c3cc(C(F)(F)F)c(C5CCC(=O)NC5=O)cn3)CC4)cc2)C1 (some centres unmarked) [Compound 270] | > 30 nM | > 30 nM
Cc1ncsc1-c1ccc(CNC(=O)[C@@H]2C[C@@H](O)CN2C(=O)[C@@H](NC(=O)CCCCNC(=O)c2ccc([C@H]3C[C@@H](Nc4cnn(C)c(=O)c4Br)CN(C)C3)cc2)C(C)(C)C)cc1 [Compound 422] | > 30 nM | > 30 nM
CN1C[C@H](Nc2cnn(C)c(=O)c2Cl)C[C@H](c2ccc(C(=O)N3CCC(C#Cc4ccc(C5CCC(=O)NC5=O)cc4)CC3)cc2)C1 (some centres unmarked) [Compound 332] | < 1 nM | > 30 nM
Cc1c(C2CCC(=O)NC2=O)ccc(N2CCC3(CCN(C(=O)c4ccc([C@H]5C[C@@H](Nc6cnn(C)c(=O)c6C)CN(C)C5)cc4)CC3)CC2)c1F (some centres unmarked) [Compound 256] | < 1 nM | 1 to 30 nM
Cc1c(N[C@@H]2C[C@H](c3ccc(C(=O)N4CCC5(CC4)CCN(c4ccc6c(C7CCC(=O)NC7=O)nccc6c4)CC5)cc3)CN(C)C2)cnn(C)c1=O (some centres unmarked) [Compound 295] | < 1 nM | 1 to 30 nM
CN1C[C@H](Nc2cnn(C)c(=O)c2Cl)C[C@H](c2ccc(C(=O)N3CCC4(CCC(c5ccc(C6CCC(=O)NC6=O)cn5)CC4)CC3)cc2)C1 (some centres unmarked) [Compound 322] | < 1 nM | < 1 nM
COc1cc(N2CCC3(CCN(C(=O)c4ccc([C@H]5C[C@@H](Nc6cnn(C)c(=O)c6Br)CN(C)C5)cc4)CC3)CC2)c(C)cc1C1CCC(=O)NC1=O (some centres unmarked) [Compound 284] | < 1 nM | > 30 nM
CN1C[C@H](Nc2cnn(C)c(=O)c2Cl)C[C@H](c2ccc(C(=O)N3CCC4(CC3)CCN(c3ccc5nnn(C6CCC(=O)NC6=O)c5c3)CC4)cc2)C1 (some centres unmarked) [Compound 214] | 1 to 30 nM | > 30 nM
COc1cc(N2CCC3(CCN(C(=O)c4ccc([C@H]5C[C@@H](Nc6cnn(C)c(=O)c6Cl)CN(C)C5)cc4)CC3)CC2)c(C)cc1C1CCC(=O)NC1=O (some centres unmarked) [Compound 285] | < 1 nM | > 30 nM
Cc1c(N[C@@H]2C[C@H](c3ccc(C(=O)N4CCC5(CC4)CCN(c4ccc(C6CCC(=O)NC6=O)cc4C(F)(F)F)CC5)cc3)CN(C)C2)cnn(C)c1=O (some centres unmarked) [Compound 226] | < 1 nM | 1 to 30 nM
Cc1cc(N2CCC3(CCN(C(=O)c4ccc([C@H]5C[C@@H](Nc6cnn(C)c(=O)c6C)CN(C)C5)cc4)CC3)CC2)cc(F)c1C1CCC(=O)NC1=O (some centres unmarked) [Compound 255] | < 1 nM | < 1 nM
CN1C[C@H](Nc2cnn(C)c(=O)c2Cl)C[C@H](c2ccc(CN3CCN(c4cc5c(cc4F)C(=O)N(C4CCC(=O)NC4=O)C5=O)CC3)cc2)C1 (some centres unmarked) [Compound 305] | 1 to 30 nM | > 30 nM
CN1C[C@H](Nc2cnn(C)c(=O)c2Br)C[C@H](c2ccc(CN3CCN(c4ccnc(C5CCC(=O)NC5=O)c4)CC3)cc2)C1 (some centres unmarked) [Compound 350] | 1 to 30 nM | > 30 nM
Cc1cc(N2CCC3(CCN(C(=O)c4ccc([C@H]5C[C@@H](Nc6cnn(C)c(=O)c6Cl)CN(C)C5)cc4)CC3)CC2)cc(C)c1N1CCC(=O)NC1=O [Compound 399] | > 30 nM | > 30 nM
COc1cc(N2CCC3(CCN(C(=O)c4ccc([C@H]5C[C@@H](Nc6cnn(C)c(=O)c6Br)CN(C)C5)cc4)CC3)CC2)ccc1C1CCC(=O)NC1=O (some centres unmarked) [Compound 263] | < 1 nM | < 1 nM
CN1C[C@H](Nc2cnn(C)c(=O)c2Br)C[C@H](c2ccc(CN3CCN(c4cccc(OC5CCC(=O)NC5=O)c4)CC3)cc2)C1 (stereo partly drawn) [Compound 435, 3-(3-(4-(4-((3R,5R)-5-((5-bromo-1-methyl-6-oxo-1,6-dihydropyridazin-4-yl)amino)-1-methylpiperidin-3-yl)benzyl)piperazin-1-yl)phenoxy)piperidine-2,6-dione] | > 30 nM | > 30 nM
CN1C[C@H](Nc2cnn(C)c(=O)c2Cl)C[C@H](c2ccc(CN3CCC4(CC3)CCN(c3ccc(C5CCC(=O)NC5=O)c(F)c3)CC4)cc2)C1 (some centres unmarked) [Compound 340] | < 1 nM | < 1 nM

SMILES | DC50 (KAT2A) | DC50 (KAT2B)
CN1C[C@H](Nc2cnn(C)c(=O)c2Br)C[C@H](c2ccc(CN3CC(c4ccc5c(c4)C(=O)N(C4CCC(=O)NC4=O)C5=O)C3)cc2)C1 (some centres unmarked) [Compound 202] | 1 to 30 nM | > 30 nM
CN1C[C@H](Nc2cnn(C)c(=O)c2Br)C[C@H](c2ccc(CN3CCC(c4cccc(C5CCC(=O)NC5=O)c4)C(F)(F)C3)cc2)C1 (some centres unmarked) [Compound 386] | 1 to 30 nM | > 30 nM
CN1C[C@H](Nc2cnn(C)c(=O)c2Br)C[C@H](c2ccc(CN3CC(c4cccc(C5CCC(=O)NC5=O)c4)C3)cc2)C1 (some centres unmarked) [Compound 190] | 1 to 30 nM | > 30 nM
Cc1c(N[C@@H]2C[C@H](c3ccc(CN4CCN(c5cc(C6CCC(=O)NC6=O)c(F)cc5F)CC4)cc3)CN(C)C2)cnn(C)c1=O (some centres unmarked) [Compound 360] | > 30 nM | > 30 nM
Cc1c(N[C@@H]2C[C@H](c3ccc(CN4CCN(c5cc(C6CCC(=O)NC6=O)ccn5)CC4)cc3)CN(C)C2)cnn(C)c1=O (some centres unmarked) [Compound 357] | 1 to 30 nM | > 30 nM
Cc1cc(N2CC(N3CCN(C(=O)c4ccc([C@H]5C[C@@H](Nc6cnn(C)c(=O)c6Cl)CN(C)C5)cc4)CC3)C2)ccc1C1CCC(=O)NC1=O (some centres unmarked) [Compound 308] | < 1 nM | 1 to 30 nM
Cc1c(N2CCC3(CCN(C(=O)c4ccc([C@H]5C[C@@H](Nc6cnn(C)c(=O)c6C)CN(C)C5)cc4)CC3)CC2)ccc(C2CCC(=O)NC2=O)c1F (some centres unmarked) [Compound 236] | < 1 nM | 1 to 30 nM
CN1C[C@H](Nc2cnn(C)c(=O)c2Cl)C[C@H](c2ccc(C(=O)N3CCC4(CC3)CCN(c3ccc(C5CCC(=O)NC5=O)c(C(F)(F)F)c3)CC4)cc2)C1 (some centres unmarked) [Compound 222] | > 30 nM | > 30 nM
Cc1cc(C2CCC(=O)NC2=O)c(F)cc1N1CCC2(CCN(C(=O)c3ccc([C@H]4C[C@@H](Nc5cnn(C)c(=O)c5Br)CN(C)C4)cc3)CC2)CC1 (some centres unmarked) [Compound 275] | 1 to 30 nM | 1 to 30 nM
CN1C[C@H](Nc2cnn(C)c(=O)c2Cl)C[C@H](c2ccc(C(=O)N3CCC4(CC3)CCN(c3ccc(OC5CCC(=O)NC5=O)cn3)CC4)cc2)C1 (some centres unmarked) [Compound 367] | < 1 nM | > 30 nM
CN1C[C@H](Nc2cnn(C)c(=O)c2Br)C[C@H](c2ccc(CN3CCC(c4ccc5c(C6CCC(=O)NC6=O)cncc5c4)C(F)(F)C3)cc2)C1 (some centres unmarked) [Compound 388] | < 1 nM | < 1 nM
CN1C[C@H](Nc2cnn(C)c(=O)c2Br)C[C@H](c2ccc(C(=O)N3CCC4(CC3)CCN(c3ccc(C5CCC(=O)NC5=O)cc3OC(F)(F)F)CC4)cc2)C1 (some centres unmarked) [Compound 259] | < 1 nM | 1 to 30 nM
CN1C[C@H](Nc2cnn(C)c(=O)c2Cl)C[C@H](c2ccc(C(=O)N3CCC4(CC3)CCN(c3ccc5c(C6CCC(=O)NC6=O)nccc5c3)CC4)cc2)C1 (some centres unmarked) [Compound 293] | < 1 nM | 1 to 30 nM
CN1C[C@H](Nc2cnn(C)c(=O)c2Br)C[C@H](c2ccc(C(=O)N3CC(c4cccc(C5CCC(=O)NC5=O)c4)C3)cc2)C1 (some centres unmarked) [Compound 191] | 1 to 30 nM | > 30 nM
CN1C[C@H](Nc2cnn(C)c(=O)c2Cl)C[C@H](c2ccc(C(=O)N3CCC4(CC3)CCN(c3ccc(N5CCC(=O)NC5=O)c(F)c3)CC4)cc2)C1 [Compound 398] | < 1 nM | < 1 nM
CN1C[C@H](Nc2cnn(C)c(=O)c2Br)C[C@H](c2ccc(C(=O)N3CCN(C4CCC(N5CCC(=O)NC5=O)CC4)CC3)cc2)C1 (some centres unmarked) [Compound 204] | > 30 nM | > 30 nM
CN1C[C@H](Nc2cnn(C)c(=O)c2Cl)C[C@H](c2ccc(CN3CCN(c4cccc(C5CCC(=O)NC5=O)c4)CC3)cc2)C1 (some centres unmarked) [Compound 361] | < 1 nM | 1 to 30 nM
CN1C[C@H](Nc2cnn(C)c(=O)c2Cl)C[C@H](c2ccc(C(=O)N3CCC4(CC3)CCN(c3cc(F)c(C5CCC(=O)NC5=O)cc3F)CC4)cc2)C1 (some centres unmarked) [Compound 276] | < 1 nM | < 1 nM
CN1C[C@H](Nc2cnn(C)c(=O)c2Cl)C[C@H](c2ccc(C(=O)N3CCC(c4ccc5c(C6CCC(=O)NC6=O)nccc5c4)CC3)cc2)C1 (some centres unmarked) [Compound 379] | < 1 nM | > 30 nM
CN1C[C@H](Nc2cnn(C)c(=O)c2Cl)C[C@H](c2ccc(CN3CCC(c4cccc(C5CCC(=O)NC5=O)c4)C(F)(F)C3)cc2)C1 (some centres unmarked) [Compound 390] | 1 to 30 nM | > 30 nM
Cc1c(N[C@@H]2C[C@H](c3ccc(C(=O)N4CCC(C#Cc5ccc(C6CCC(=O)NC6=O)cc5)CC4)cc3)CN(C)C2)cnn(C)c1=O (some centres unmarked) [Compound 333] | < 1 nM | > 30 nM
